Source: patent US20260069560A1, “COMPOSITIONS AND METHODS OF USE” (UNIVERSITY OF FLORIDA RESEARCH FOUNDATION, INCORPORATED, priority 2022, published 2026)

How the values were obtained:
[1] = test system: primary mouse splenic CD8+ T cells; test: Bioassay for IFNγ stimulation in primary splenic CD8+ T cells, flow cytometric analysis; format: cell-based; settings: for IFNγ stimulation from primary splenic CD8+ T cells: synthetic compounds, concentration range 0.01-1 mM
Method: Isolates are cultured in 96-well deep well plates for 3 days under anaerobic conditions in MEGA media. Cell-free supernatant is obtained by filtering cultures by […] syringe filtration. Cell-free supernatant is added to the serum-free culture media of primary mouse splenic CD8+ T cells at a ratio of 1:100, followed by 6 hours of incubation. After incubation, cells are harvested and stained for flow cytometric analysis, which is performed on the BD Fortessa LSR, followed by analysis using FlowJo.
FIGS. 11A-11F illustrate that synthetic cis-Bac430 induces dose-dependent stimulation of IFNγ production. Representative results are shown for IFNγ stimulation from primary splenic CD8+ T cells by cis-Bac430 and trans-Bac430 at a concentration range between 0.01-0.25 mM (FIG. 11A) or between 0.01-1 mM (FIG. 11B). P values calculated using Mann-Whitney U test compared to unstimulated negative control and PMA/Ionomycin-stimulated positive control. Representative results are shown for the percent of live CD8+ T cells from the bioassay for IFNγ stimulation by cis-Bac430 and trans-Bac430 at a concentration range between 0.01-0.25 mM (FIG. 11C) or between 0.01-1 mM (FIG. 11D). P values calculated using Mann-Whitney U test compared to unstimulated negative control and PMA/Ionomycin-stimulated positive control. Representative results are shown for mean±SEM of fecal Bac430 concentration in μM normalized to stool weight from SPF, germ free (GF) or six-consort colonized germ free mice 2 weeks post-colonization (FIG. 11E) or for each member of the six-consort following 3 days anaerobic culture (FIG. 11F).
Feces collected from R mice were used as source material for high-throughput microbial isolation performed with the GALT Prospector technology. Bacterial identification was performed using MALDI-TOF Biotyper and Sanger sequencing. The cell free supernatants and <3 kDa small molecules of 183 Bacteroides isolates were screened for their ability to stimulate IFNγ production via a bioassay using primary CD8+ T cells and flow cytometric analysis. A consortium composed of six IFNγ-stimulating isolates or NR feces was transplanted into a gnotobiotic mouse model of lung cancer and treated with anti-PD-1, with or without anti-IFNγ monoclonal antibody depletion. Tumors were harvested at endpoint for flow cytometric analysis, and blood serum for IFNγ ELISA. […] Vacuum and high-performance liquid chromatography were used to identify fractions from the cell free supernatant of a single stimulating Bacteroides isolate which stimulate IFNγ production.
To summarize, small molecule characterization was performed using LC-MS/MS and computation pipelines for structural prediction. […]

[2] = test system: LLC subcutaneous allograft tumors; test: Intratumoral injection of cis-Bac430 in combination with anti-PD-1 therapy in lung tumor-bearing mice; format: in vivo
Method: FIGS. 12A-12G illustrate that intratumoral administration of cis-Bac430 in combination with anti-PD-1 therapy reduces tumor volume and enhances systemic anti-tumor immunity. An experimental schematic is shown for testing anti-PD-1 mediated anti-tumor effect in combination with intratumoral injection of cis-Bac430 or DMSO control (FIG. 12A). Representative results are shown for the growth curve of LLC subcutaneous allograft tumors receiving intratumoral injection of either cis-Bac430 (0.043 mg/mouse) or DMSO alone at the same time as anti-PD-1 treatment or saline control (FIG. 12n). Each point represents tumor volume mean±SEM. At day 20, P values are calculated by Mann-Whitney U test. Representative results are shown for the mean±SEM of tumor weight at the endpoint for mice treated with an anti-PD-1 monoclonal antibody or saline control that received intratumoral injection of either cis-Bac430 or DMSO (FIG. 12C). P values are calculated by Mann-Whitney U test. Representative results are shown for the mean±SEM of intratumoral CD8+ frequency at endpoint for mice treated with an anti-PD-1 monoclonal antibody or saline control that received intratumoral injection of either cis-Bac430 or DMSO (FIG. 12D). P values are calculated by Mann-Whitney U test. Representative results are shown for the mean±SEM of intratumoral IFNγ+CD8+ frequency at endpoint for mice treated with an anti-PD-1 monoclonal antibody or saline control that received intratumoral injection of either cis-Bac430 or DMSO (FIG. 12E). P values are calculated by Mann-Whitney U test. Representative results are shown for the mean±SEM of splenic CD8+ frequency at endpoint for mice treated with an anti-PD-1 monoclonal antibody or saline control that received intratumoral injection of either cis-Bac430 or DMSO (FIG. 12F). P values are calculated by Mann-Whitney U test. Representative results are shown for the mean±SEM of splenic IFNγ+CD8+ frequency at endpoint for mice treated with an anti-PD-1 monoclonal antibody or saline control that received intratumoral injection of either cis-Bac430 or DMSO (FIG. 12G). P values are calculated by Mann-Whitney U test.
Lung tumor-bearing mice were injected intratumorally with a 10 μL volume of either 10 mM (0.043 mg/dose) cis-Bac430 or DMSO on each day of anti-PD-1 therapy (FIG. 12A).

[3] = combined with anti-PD-1, endpoint
[4] = intratumoral 0.043 mg/dose on each day of anti-PD-1 therapy, compared to anti-PD-1 or DMSO injection
[5] = intratumoral administration, endpoint

Structure (SMILES) | proliferative effect on CD8+ T cells (percent of live CD8+ T cells) ([1]; higher concentrations) | IFNγ stimulation from primary splenic CD8+ T cells [1] | IFNγ stimulation from primary splenic CD8+ T cells ([1]; listed as Cis-Bac430) | frequency of intratumoral CD8+ T cells [2, 3] | tumor infiltrating cytotoxic IFNγ+CD8+ T cells [2, 3] | tumor volume at endpoint [2, 4] | tumor weight at endpoint [2, 4] | splenic IFNγ+CD8+ T cells [2, 5] | splenic overall CD8+ T cell frequency [2, 5]
CCCCCC/C=C\CCCCCCCCCC(=O)N[C@@H](Cc1ccccc1)C(=O)O [cis-Bac430] | mild proliferative effect | dose dependent bioactivity | robustly stimulate IFNγ | increased frequency | trend toward increased | significantly smaller | significantly smaller | trend toward increased | decreased
CCCCCC/C=C/CCCCCCCCCC(=O)N[C@@H](Cc1ccccc1)C(=O)O [trans-Bac430] |  | does not demonstrate bioactivity |  |  |  |  |  |  | 
